Data on one compound can be found in patent US6852863B2, “Metabolites of (3-{[4-tert-butyl-benzyl)-(pyridine-3-sulfonyl)-amino]-methyl}-phenoxy)-acetic acid” (Pfizer Inc., priority 2002, dated 2005).

Data set [1] can be described thus: Metabolism of 14C-parent in rat liver microsomes. Format: in vitro ADME. To be noted: 20 μM 14C-parent, NADPH, 30 minutes, 37° C.; HPLC radiochromatogram peak. Here is the method: (§1) Human (HL-mix 12), rat, monkey and dog liver microsomes were prepared by differential centrifugation using standard procedures. Prior to use, liver microsomes were thawed on ice and reconstituted using 100 mM potassium phosphate pH 7.4. [^14C]-(3-{[4-tert-butyl-benzyl)-(pyridine-3-sulfonyl)-amino]-methyl}-phenoxy)-acetic acid was dissolved 100 mM potassium phosphate pH 7.4 at a final substrate concentration of 20 μM. Samples were pre-incubated for 3 min with microsomes (CYP 450; 0.5 μM) at 37° C. in a shaking water bath. Incubations were initiated with the addition of 100 μl cofactor (1.1 mM NADPH, 10 mM MgCl2) per 1 ml of incubation mixture. Incubations were stopped after 30 minutes by the addition of an equal volume of cold acetonitrile.
(§2) Metabolite quantification was performed by measuring the areas of individually separated HPLC peaks using the β-RAM (IN/US, Win-flow). […]
(§3) Identification of the metabolites was performed using a Finnigan TSQ 7000 triple quadrupole mass spectrometer equipped with an API-2 electrospray interface. […] The β-RAM response was recorded as a real time analog signal by the MS data collection system. The collected data from the radioactivity and MS detectors were separated by the dwell volume of flow from the MS to the radioactivity detector (corresponding to a dwell time of about 0.2 min.). […]
A general note: Microsomes from liver hold many membrane-bound enzymes, among them those of drug oxidation.

Data set [2] can be described thus: Metabolism of 14C-parent in human liver microsomes. Format: in vitro ADME. The settings on record: 20 μM 14C-parent, NADPH, 30 minutes, 37° C.; HPLC radiochromatogram peak. Here is the method:
as §1, §2, §3

As for `CC(C)(CO)c1ccc(CN(Cc2cccc(OCC(=O)O)c2)S(=O)(=O)c2cccnc2)cc1` [Metabolite M4, (3-{[[4-(2-hydroxy-1,1-dimethyl-ethyl)-benzyl]-(pyridine-3-sulfonyl)-amino]-methyl}-phenoxy)-acetic acid], the “Percent of Radioactivity, Rat liver microsomes” value in data set [1] turned out to be 4.38%. Besides, the “Percent of Radioactivity, Human liver microsomes” value in data set [2] turned out to be 26.5%.
